Source: the NIST ThermoML archive (doi:10.1021/je030107c)

Experiments:
[1] = xn = mol fraction of the nth substance listed; details: 101.3 kPa, Liquid; for viscosity: Capillary tube (Ostwald / Ubbelohde) method; for speed of sound: Linear variable-path acoustic interferometer; for mass density: Pycnometric method
[2] = refractive index (Na D-line) (dimensionless); xn = mol fraction of the nth substance listed; details: 101.3 kPa, Liquid, Standard Abbe refractometry

CCCCN(CCCC)CCCC [tributylamine] + C1COCCO1
Details | mass density, 298.15 K [kg/m3] | mass density, 303.15 K [kg/m3] | mass density, 308.15 K [kg/m3] | refractive index, 298.15 K | refractive index, 303.15 K | refractive index, 308.15 K | speed of sound, 298.15 K [m/s] | viscosity, 298.15 K [mPa·s] | viscosity, 303.15 K [mPa·s] | viscosity, 308.15 K [mPa·s]
[1], x2 = 0 | 774.4 | 770.1 | 766.2 | – | – | – | 1261 | 1.36 | 1.221 | 1.125
[1], x2 = 0.1201 | 785.1 | 780.9 | 776.8 | – | – | – | 1253 | 1.245 | 1.142 | 1.039
[1], x2 = 0.2122 | 794.7 | 790.2 | 785.9 | – | – | – | 1254 | 1.19 | 1.089 | 0.989
[1], x2 = 0.3072 | 806 | 801.6 | 797.1 | – | – | – | 1257 | 1.156 | 1.059 | 0.963
[1], x2 = 0.4085 | 820.5 | 815.9 | 811.4 | – | – | – | 1264 | 1.137 | 1.044 | 0.95
[1], x2 = 0.5014 | 836.6 | 832.1 | 827.5 | – | – | – | 1272 | 1.123 | 1.032 | 0.94
[1], x2 = 0.5972 | 856.9 | 852.1 | 847.4 | – | – | – | 1281 | 1.118 | 1.026 | 0.934
[1], x2 = 0.6998 | 884 | 879.2 | 874.1 | – | – | – | 1292 | 1.112 | 1.022 | 0.933
[1], x2 = 0.7999 | 917.9 | 912.6 | 907.4 | – | – | – | 1305 | 1.114 | 1.025 | 0.936
[1], x2 = 0.8947 | 960.6 | 955.2 | 949.9 | – | – | – | 1320 | 1.133 | 1.042 | 0.952
[2], x2 = 0 | – | – | – | 1.4274 | 1.4251 | 1.4226 | – | – | – | –
[2], x2 = 0.1201 | – | – | – | 1.4266 | 1.424 | 1.4215 | – | – | – | –
[2], x2 = 0.2122 | – | – | – | 1.4259 | 1.4236 | 1.421 | – | – | – | –
[2], x2 = 0.3072 | – | – | – | 1.425 | 1.4226 | 1.4201 | – | – | – | –
[2], x2 = 0.4085 | – | – | – | 1.4244 | 1.4218 | 1.4196 | – | – | – | –
[2], x2 = 0.5014 | – | – | – | 1.4234 | 1.4209 | 1.4184 | – | – | – | –
[2], x2 = 0.5972 | – | – | – | 1.4226 | 1.4201 | 1.4174 | – | – | – | –
[2], x2 = 0.6998 | – | – | – | 1.4217 | 1.4192 | 1.4168 | – | – | – | –
[2], x2 = 0.7999 | – | – | – | 1.421 | 1.4185 | 1.416 | – | – | – | –
[2], x2 = 0.8947 | – | – | – | 1.4205 | 1.418 | 1.4154 | – | – | – | –

CCN(CC)CC [triethylamine] + C1COCCO1
Details | mass density, 298.15 K [kg/m3] | mass density, 303.15 K [kg/m3] | mass density, 308.15 K [kg/m3] | refractive index, 298.15 K | refractive index, 303.15 K | refractive index, 308.15 K | speed of sound, 298.15 K [m/s] | viscosity, 298.15 K [mPa·s] | viscosity, 303.15 K [mPa·s] | viscosity, 308.15 K [mPa·s]
[1], x2 = 0 | 723.1 | 718.5 | 713.6 | – | – | – | 1127 | 0.363 | 0.347 | 0.33
[1], x2 = 0.1104 | 744.6 | 739.7 | 734.8 | – | – | – | 1139 | 0.392 | 0.372 | 0.353
[1], x2 = 0.2044 | 764.5 | 759.5 | 754.6 | – | – | – | 1155 | 0.418 | 0.397 | 0.377
[1], x2 = 0.3028 | 787.3 | 782.2 | 777.1 | – | – | – | 1172 | 0.451 | 0.428 | 0.404
[1], x2 = 0.398 | 811.3 | 806.1 | 800.9 | – | – | – | 1189 | 0.494 | 0.466 | 0.438
[1], x2 = 0.4946 | 838 | 832.8 | 827.5 | – | – | – | 1210 | 0.542 | 0.512 | 0.481
[1], x2 = 0.5986 | 869.7 | 864.3 | 859 | – | – | – | 1234 | 0.613 | 0.575 | 0.538
[1], x2 = 0.6952 | 902.3 | 896.8 | 891.5 | – | – | – | 1260 | 0.697 | 0.652 | 0.608
[1], x2 = 0.7996 | 941.2 | 935.6 | 930 | – | – | – | 1290 | 0.815 | 0.76 | 0.705
[1], x2 = 0.8934 | 979.8 | 974.2 | 968.5 | – | – | – | 1318 | 0.958 | 0.889 | 0.821
[2], x2 = 0 | – | – | – | 1.3983 | 1.3955 | 1.3926 | – | – | – | –
[2], x2 = 0.1104 | – | – | – | 1.3996 | 1.3969 | 1.3942 | – | – | – | –
[2], x2 = 0.2044 | – | – | – | 1.4014 | 1.3985 | 1.3956 | – | – | – | –
[2], x2 = 0.3028 | – | – | – | 1.4032 | 1.4002 | 1.3972 | – | – | – | –
[2], x2 = 0.398 | – | – | – | 1.4048 | 1.402 | 1.3994 | – | – | – | –
[2], x2 = 0.4946 | – | – | – | 1.4068 | 1.404 | 1.4013 | – | – | – | –
[2], x2 = 0.5986 | – | – | – | 1.4095 | 1.4067 | 1.4041 | – | – | – | –
[2], x2 = 0.6952 | – | – | – | 1.4117 | 1.409 | 1.4062 | – | – | – | –
[2], x2 = 0.7996 | – | – | – | 1.4147 | 1.412 | 1.4093 | – | – | – | –
[2], x2 = 0.8934 | – | – | – | 1.4176 | 1.4148 | 1.4121 | – | – | – | –
